Literature values, collected in paper PMC2853223 (ACS chemical biology, 2009).

System: DEBS 3
Details: mismatched PikAII/DEBS 3 pairing

For “PiKAII: pikromycin PKS protein PikAII, paired with DEBS 3 in vivo”, the “association and transfer with DEBS 3 in vivo” value is listed as “productive association and transfer”.
